From patent US20240270821A1, “GIP/GLP1/GCG TRI-RECEPTOR AGONISTS AND USES THEREOF” (priority 2023, published 2024) come the findings set out here.

pEC50: −log10 of the molar value. Starred links: 1 amine or outer side, 2 acyl side, 3 side chain; linkers in the order of their positions; H or OH if unused. Non-standard residues stand in square brackets, D forms with d. Groups on a side chain read outwards from the residue. *: point of attachment. C18 diacid = O=C(O)CCCCCCCCCCCCCCCCC(=O)*; γGlu = O=C(O)[C@H](CCC(=O)[*:2])N[*:1]; αMe4Pal = C[C@](N)(Cc1ccncc1)C(=O)O; 4Pal = N[C@@H](Cc1ccncc1)C(=O)O; αMeL = CC(C)C[C@](C)(N)C(=O)O; Orn = NCCC[C@H](N)C(=O)O; AEEA = NCCOCCOCC(=O)O; Aib = CC(C)(N)C(=O)O

The term pEC50 denotes the EC50 on a negative log10 scale, so that one unit is a factor of ten.

Series [1] concerns the target T1, hGIPR (Homo sapiens, UniProt P48546).
T1 sequence (P48546 22-466): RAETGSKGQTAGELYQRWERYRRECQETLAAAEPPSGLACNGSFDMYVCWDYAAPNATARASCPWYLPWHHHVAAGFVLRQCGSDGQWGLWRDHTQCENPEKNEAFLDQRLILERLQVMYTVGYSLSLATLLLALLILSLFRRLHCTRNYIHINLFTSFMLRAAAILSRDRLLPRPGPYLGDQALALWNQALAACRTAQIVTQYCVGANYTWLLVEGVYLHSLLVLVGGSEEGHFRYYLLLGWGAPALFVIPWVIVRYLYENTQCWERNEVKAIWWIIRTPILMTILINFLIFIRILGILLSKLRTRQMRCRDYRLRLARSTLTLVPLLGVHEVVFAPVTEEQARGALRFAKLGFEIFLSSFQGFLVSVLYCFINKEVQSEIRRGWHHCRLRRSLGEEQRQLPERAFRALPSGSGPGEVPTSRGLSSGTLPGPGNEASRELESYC
The experiment in a line: Functional cAMP activity in the presence of 1% HSA. The class given is cell-based. The note with it: read-out: cAMP Rel EC50, hGIPR.

Series [2] deals with T2, hGLP-1R (Homo sapiens, UniProt P43220). Briefly: Functional cAMP activity in the presence of 1% HSA. The class given is cell-based. The settings on record: read-out: cAMP Rel EC50, hGLP-1R.
For series [3], the target named is human GcgR (Homo sapiens, UniProt P47871). The experiment in a line: Functional cAMP activity in the presence of 1% HSA. The series is classed as cell-based. The settings on record: read-out: cAMP Rel EC50, hGcgR.
Series [4] has as its target T1, hGIPR. Briefly: Functional cAMP activation in the presence of 0.1% casein (no HSA). The class given is cell-based. The note with it: in the presence of 0.1% casein (no HSA); geometric mean; read-out: Relative cAMP EC50, hGIPR.
The target of series [5] is T2, hGLP-1R. The series is described as above. The class given is cell-based. The settings on record: in the presence of 0.1% casein (no HSA); geometric mean; read-out: Relative cAMP EC50, hGLP-1R.
For series [6], the target named is hGcgR (Homo sapiens, UniProt P47871). The series is described as above. The series is classed as cell-based. The note with it: in the presence of 0.1% casein (no HSA); geometric mean; read-out: Relative cAMP EC50, hGcgR.
Series [7] has as its target human GLP1-R (Homo sapiens, UniProt P43220). Briefly: GLP1-R internalization assay in HEK293 cells. The class given is cell-based. The settings on record: for pEC50: HEK293 cells expressing SNAP-GLP-1R, read-out: GLP1R Internalization EC50; for Internalization % TOP: normalized to maximum concentration of GLP-1 (100%).
For series [8], the system named is Intestinal organoid from Göttingen minipig jejunum tissue, 2D monolayer. The experiment in a line: Cell based in vitro permeability (Papp) assay. The class given is in vitro ADME. An outline of the steps: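 2D monolayers derived from Göttingen minipig jejunal organoids on transwell inserts. Basal samples collected at 20 min in the presence of C10. Peptide in apical and basal compartments quantified by LC/MS to give Papp.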
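Wherever Relative cAMP EC50, hGIPR is given: intracellular cAMP rise after 30 min at 37 °C read by HTRF against a standard curve, scaled between buffer alone (0%) and top control ligand concentration (100%), four-parameter fit.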
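Wherever Relative cAMP EC50, hGLP-1R is given: intracellular cAMP rise after 30 min at 37 °C read by HTRF, normalized between buffer only (0%) and maximal control ligand (100%), four-parameter variable-slope fit.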
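Wherever Relative cAMP EC50, hGcgR is given: intracellular cAMP rise after 30 min at 37 °C, read by HTRF against a cAMP standard curve, scaled from buffer only (0%) to maximal control ligand response (100%).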

T2 sequence (P43220 24-463): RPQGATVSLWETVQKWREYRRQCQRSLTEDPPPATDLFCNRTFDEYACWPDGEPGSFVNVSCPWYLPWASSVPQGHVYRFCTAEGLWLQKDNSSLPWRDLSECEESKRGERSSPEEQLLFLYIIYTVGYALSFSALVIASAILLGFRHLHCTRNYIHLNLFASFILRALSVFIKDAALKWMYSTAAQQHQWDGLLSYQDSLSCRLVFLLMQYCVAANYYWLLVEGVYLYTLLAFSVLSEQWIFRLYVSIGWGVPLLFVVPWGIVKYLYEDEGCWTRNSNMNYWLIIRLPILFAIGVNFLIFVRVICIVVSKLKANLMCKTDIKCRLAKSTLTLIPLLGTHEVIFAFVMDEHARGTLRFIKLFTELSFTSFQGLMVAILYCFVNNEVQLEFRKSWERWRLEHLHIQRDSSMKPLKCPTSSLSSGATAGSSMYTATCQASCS
Chain of human GLP1-R (P43220 24-463): as above
Chain of hGcgR (P47871 26-477): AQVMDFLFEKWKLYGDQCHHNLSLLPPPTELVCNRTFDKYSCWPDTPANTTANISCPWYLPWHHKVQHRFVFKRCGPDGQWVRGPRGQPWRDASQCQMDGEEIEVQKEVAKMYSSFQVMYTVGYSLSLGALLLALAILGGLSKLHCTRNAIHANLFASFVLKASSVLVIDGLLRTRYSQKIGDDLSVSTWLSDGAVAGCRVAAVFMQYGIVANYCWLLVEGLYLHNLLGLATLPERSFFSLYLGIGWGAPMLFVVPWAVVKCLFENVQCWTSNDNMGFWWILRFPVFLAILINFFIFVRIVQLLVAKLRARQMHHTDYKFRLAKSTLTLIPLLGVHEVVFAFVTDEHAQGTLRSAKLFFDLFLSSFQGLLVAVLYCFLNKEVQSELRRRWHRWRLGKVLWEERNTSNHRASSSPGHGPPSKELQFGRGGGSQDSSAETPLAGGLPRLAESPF
Chain of human GcgR (P47871 26-477): as above

Regarding `CC[C@H](C)[C@H](NC(=O)[C@H](Cc1ccccc1)NC(=O)[C@H](C)NC(=O)C(C)(C)NC(=O)[C@H](CCC(N)=O)NC(=O)[C@H](C)NC(=O)[C@H](CCCCNC(=O)CC[C@H](NC(=O)CC[C@H](NC(=O)CCCCCCCCCCCCCCCCC(=O)O)C(=O)O)C(=O)O)NC(=O)[C@H](CCCCN)NC(=O)[C@H](CC(=O)O)NC(=O)[C@H](CC(C)C)NC(=O)[C@](C)(CC(C)C)NC(=O)[C@H](CCCN)NC(=O)[C@H](CO)NC(=O)[C@H](Cc1ccccc1)NC(=O)[C@H](CC(=O)O)NC(=O)[C@H](CO)NC(=O)[C@@H](NC(=O)[C@H](Cc1ccccc1)NC(=O)[C@@H](NC(=O)CNC(=O)[C@H](CCC(N)=O)NC(=O)C(C)(C)NC(=O)[C@@H](N)Cc1ccc(O)cc1)[C@@H](C)O)[C@@H](C)O)C(=O)N[C@@H](CCC(=O)O)C(=O)N[C@@H](Cc1ccc(O)cc1)C(=O)N[C@@H](CC(C)C)C(=O)N[C@@H](CC(C)C)C(=O)N[C@@H](CCC(=O)O)C(=O)N[C@H](C)C(=O)NCC(=O)N1CCC[C@H]1C(=O)N[C@@H](CO)C(=O)N[C@@H](CO)C(=O)NCC(=O)N[C@@H](C)C(=O)N1CCC[C@H]1C(=O)N1CCC[C@H]1C(=O)N1CCC[C@H]1C(=O)N[C@@H](CO)C(=O)NCC(=O)N[C@H](C(N)=O)[C@@H](C)O` [Example 204], the pEC50 in series [1] is 7.78; in series [2], 6.51; in series [3], 6.24; in series [4] it was 9.74; in series [5], 8.63; in series [6] it was 8.16. In series [7], the pEC50 was 7.18. Also, in series [7], the “Internalization % TOP” value came to 45.5%. Also, the “Relative Papp (Compared to internal standard)” value (from here on “Relative Papp”) in series [8] is given as 0.16.
“H-Y[Aib]QGTFTSD[4Pal]SR[αMeL]LDKK([AEEA-γGlu-C18 diacid])AQ[Aib]AFIEYLIE[Aib]GESSGAPPPSGS-NH2 [Example 187]”: the pEC50 in series [1] is 7.81; in series [2], 6.75; in series [3], 5.53; in series [4] it was 9.95; in series [5] it was 8.95; in series [6] it was 7.83. Also, in series [7], the pEC50 was 7.76. In addition, the “Internalization % TOP” value in series [7] is listed as 57%. Also, in series [8], the “Relative Papp” value was 0.48.
Regarding “H-Y[Aib]QGTFTSDFS[Orn][αMeL]LDKK([AEEA-γGlu-C18 diacid])AQ[Aib]AFIEYLLE[dA]GPSSGAPPPSG[4Pal]-NH2 [Example 211]”, the pEC50 in series [1] is 7.69; in series [2], 6.63; in series [3], 6.43; in series [4] it was 9.94; in series [5] it was 8.91; in series [6], 8.69. Moreover, the pEC50 in series [7] was 7.24. Moreover, the “Internalization % TOP” value in series [7] was 26.9%. Moreover, in series [8], the “Relative Papp” value was 0.06.
“H-Y[Aib]QGTFTSDFS[Orn][αMeL]LDKK([AEEA-γGlu-C18 diacid])AQ[Aib]AFIEYLLE[Aib]G[4Pal]SSGAPPPSGS-NH2 [Example 242]”: the pEC50 is 8.23 in series [1]; 6.62 in series [2]; 6.32 in series [3]; 10.04 in series [4]; 8.47 in series [5]; 8.46 in series [6]. The pEC50 in series [7] is 7.25. In addition, the “Internalization % TOP” value in series [7] was found to be 38.2%. For the same molecule, the “Relative Papp” value in series [8] is given as 0.07.
On to “H-Y[Aib]QGTFTSD[4Pal]S[Orn][αMeL]LDKK([AEEA-γGlu-C18 diacid])AQ[αMe4Pal]AFIEYLIE[Aib]GESSGAPPPSGS-NH2 [Example 223]”, for which the pEC50 in series [1] is 7.43; in series [2], 6.20; in series [3], 6.43; in series [4] it was 9.67; in series [5], 8.55; in series [6], 8.80. Besides, the pEC50 in series [7] was 7.34. The “Internalization % TOP” value in series [7] stood at 59.3%. Besides, the “Relative Papp” value in series [8] is given as 0.29.
